Molecules are shown by their SMILES. The source made the active and inactive calls. The calls are words filed in the database; no cut-off is given here. *1 amine or outer side, *2 acyl side, *3 side chain or, on linkers, in order; H or OH if unused. Where a SMILES comes first, the peptide text is derived from it. Bridges are numbered along the chain shown (N, C = ends). Roman numbers before positions name the chains, in order. [ ]: non-standard residue; d: D form. Actinocin(1to9) = Cc1c2oc3c(C)ccc(C(=O)[*:2])c3nc-2c(C(=O)[*:1])c(N)c1=O; NMeV = CN[C@H](C(=O)O)C(C)C; Sar = CNCC(=O)O

The test system of test [1] is MOLT-4. The experiment in a line: Antiproliferative activity against human MOLT4 cell line by MTT assay. The class given is functional, cell-based.
Test [2] deals with C8166. The experiment in a line: Antiproliferative activity against human C8166 cell line by MTT assay. The class given is functional, cell-based.
The test system of test [3] is HeLa. Kind of test: Antiproliferative activity against human HeLa cells by MTT assay. The class given is functional, cell-based.
Test [4] concerns HEp-2. Kind of test: Antiproliferative activity against human Hep2 cell line by MTT assay. The class given is functional, cell-based.
The test system of test [5] is WIL2-NS. Kind of test: Antiproliferative activity against human Wil2-NS cells by MTT assay. The class given is functional, cell-based.
In test [6] the test system is G-361. Kind of test: Antiproliferative activity against human G361 cell line by MTT assay. The class given is functional, cell-based.
In test [7] the test system is CCRF-CEM. Kind of test: Antiproliferative activity against human CCRF-CEM cell line by MTT assay. The class given is functional, cell-based.
Test [8] concerns ACHN. The experiment in a line: Antiproliferative activity against human ACHN cell line by MTT assay. The class given is functional, cell-based.
The subject of test [9] is MT4. The experiment in a line: Antiproliferative activity against human MT4 cell line by MTT assay. The class given is functional, cell-based.
Test [10] concerns KB. The experiment in a line: Antiproliferative activity against human KB cell line by MTT assay. The class given is functional, cell-based.
Test [11] concerns CCRF-SB. The experiment in a line: Antiproliferative activity against human CCRF-SB cell line by MTT assay. The class given is functional, cell-based.
In test [12] the test system is HT-29. The experiment in a line: Antiproliferative activity against human HT29 cell line by MTT assay. The class given is functional, cell-based.
Test [13] has as its system 5637. The experiment in a line: Antiproliferative activity against human 5637 cell line by MTT assay. The class given is functional, cell-based.
The subject of test [14] is HT-29. The experiment in a line: Cell cycle arrest in HT29 cells by accumulation at G0/G1 phase by flow cytometry at […]. The class given is functional, Homo sapiens.
For test [15], the system named is HT-29. Kind of test: Cell cycle arrest in HT29 cells by accumulation at S phase by flow cytometry at […]. The class given is functional, Homo sapiens.
Test [16] has as its system HT-29. Kind of test: Cell cycle arrest in HT29 cells by accumulation at G2/M phase by flow cytometry at […]. The class given is functional, Homo sapiens.
Test [17] addresses DNA topoisomerase II (Homo sapiens) (UniProt P11388+Q02880). Kind of test: Promotion of human topoisomerase 2-mediated DNA cleavage. The class given is protein assay.
The target of test [18] is T1, DNA topoisomerase 1 (Homo sapiens) (UniProt P11387).
T1 sequence (whole entry): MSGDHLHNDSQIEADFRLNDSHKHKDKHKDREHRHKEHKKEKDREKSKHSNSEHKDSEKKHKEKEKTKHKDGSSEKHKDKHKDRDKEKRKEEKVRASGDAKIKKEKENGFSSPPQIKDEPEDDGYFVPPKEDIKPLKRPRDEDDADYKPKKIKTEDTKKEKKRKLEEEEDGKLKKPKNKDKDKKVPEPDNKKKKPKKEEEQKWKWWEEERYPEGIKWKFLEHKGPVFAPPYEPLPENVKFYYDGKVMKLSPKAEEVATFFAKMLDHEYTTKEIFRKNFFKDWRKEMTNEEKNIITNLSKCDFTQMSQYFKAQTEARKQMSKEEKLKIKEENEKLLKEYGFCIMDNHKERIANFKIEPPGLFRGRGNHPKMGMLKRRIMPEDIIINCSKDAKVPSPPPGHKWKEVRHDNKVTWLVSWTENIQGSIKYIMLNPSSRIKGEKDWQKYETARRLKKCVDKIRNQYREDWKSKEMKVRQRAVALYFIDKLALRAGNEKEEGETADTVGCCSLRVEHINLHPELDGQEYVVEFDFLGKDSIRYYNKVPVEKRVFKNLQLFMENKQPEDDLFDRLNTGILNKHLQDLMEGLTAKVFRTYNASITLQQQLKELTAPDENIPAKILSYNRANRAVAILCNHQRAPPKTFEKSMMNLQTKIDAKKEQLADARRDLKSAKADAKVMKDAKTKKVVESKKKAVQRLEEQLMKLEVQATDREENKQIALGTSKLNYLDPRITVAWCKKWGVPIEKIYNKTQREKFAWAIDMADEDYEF
Kind of test: Promotion of human topoisomerase 1-mediated DNA cleavage.

Take `O=c1cc2oc3cc4c(cc3nc-2c2cccnc12)CCCC4`: the half-inhibitory concentration (IC50) came to 1800 nM in test [1]; 1000 nM in [2]; 1100 nM in test [3]; 1700 nM in [4]; 1200 nM in [5]; 1500 nM in [6]. Besides, the IC50 is 1100 nM in test [7]; 1400 nM in [8]; 1500 nM in [9]; 1000 nM in [10]; 2000 nM in test [11]; 3300 nM in test [12]. The compound also returned an IC50 in [13] of 1000 nM.

As for `Cc1cc2nc3c4cccnc4c(=O)cc-3oc2cc1C`, the concentration for half-maximal inhibition (IC50) in test [1] is 300 nM; in [2], 40 nM; in test [3], 800 nM; in [4] it was 800 nM; in test [5], 400 nM; in test [6], 900 nM. For the same compound, the IC50 in [7] was 150 nM; in [8] it was 400 nM; in [9], 100 nM; in [10], 90 nM; in test [11], 40 nM; in test [12], 30 nM. Besides, in [13], the IC50 is 800 nM.

For the compound `COc1cccc2c1C(=O)c1c(O)c3c(c(O)c1C2=O)C[C@@](O)(C(=O)CO)C[C@@H]3O[C@H]1C[C@H](N)[C@H](O)[C@H](C)O1` [DOXORUBICIN], the IC50 in test [8] was 1 nM; in test [10], 150 nM.

`Cc1c2oc3c(C)ccc(C(=O)N[C@@H]4C(=O)N[C@H](C(C)C)C(=O)N5CCC[C@H]5C(=O)N(C)CC(=O)N(C)[C@@H](C(C)C)C(=O)O[C@@H]4C)c3nc-2c(C(=O)N[C@@H]2C(=O)N[C@H](C(C)C)C(=O)N3CCC[C@H]3C(=O)N(C)CC(=O)N(C)[C@@H](C(C)C)C(=O)O[C@@H]2C)c(N)c1=O` [DACTINOMYCIN] (I: T[dV]P[Sar][NMeV] / II: T[dV]P[Sar][NMeV]; ester I:1-I:C, II:1-II:C; linker I:N-II:N via Actinocin(1to9)) came in with an IC50 in test [10] of 1 nM.

Turning to `O=c1cc2oc3cc4ccccc4cc3nc-2c2cccnc12`, the Activity in test [14] is recorded as 24.06%; in test [15], 20.93%; in test [16], 55.01%. For the same compound, the IC50 in test [1] worked out at 10 nM; in [2], 20 nM; in test [3], 50 nM; in test [4] it was 50 nM; in [5], 10 nM; in [6] it was 10 nM. For the same compound, the half-maximal inhibitory concentration (IC50) in test [7] was 4 nM; in [8], 20 nM; in test [9], 50 nM; in test [10] it was 20 nM; in test [11], 10 nM; in test [12] it was 30 nM. Further, inhibition in [13] was half-maximal at 20 nM (IC50). Further, the result in [17] and in [18] was inactive.

Turning to `Cc1ccc2oc3cc(=O)c4ncccc4c-3nc2c1C`, the IC50 in [1] came to 2700 nM; in [2], 1100 nM; in [3], 2600 nM; in test [4] it was 1300 nM; in test [5], 2000 nM; in [6], 1300 nM. Also, the half-inhibitory concentration (IC50) was found to be 200 nM in [7]; 1800 nM in test [8]; 300 nM in [9]; 700 nM in [10]; 1200 nM in [11]; 1200 nM in [12]. The compound also gave an IC50 in test [13] of 900 nM.

For the compound `Cc1ccc(C)c2oc3cc(=O)c4ncccc4c-3nc12`, the IC50 stood at 1600 nM in test [1]; 8000 nM in test [2]; 900 nM in test [3]; 400 nM in test [4]; 1100 nM in [5]; 700 nM in test [6]. The concentration for half-maximal inhibition (IC50) came out at 700 nM in test [7]; 500 nM in test [8]; 80 nM in test [9]; 500 nM in [10]; 400 nM in [11]; 5500 nM in test [12]. The compound further displayed a half-maximal inhibitory concentration (IC50) in test [13] of 10 nM.

Consider `O=c1cc2oc3ccc4c(c3nc-2c2cccnc12)CCCC4`, for which the IC50 turned out to be 3200 nM in [1]; 2000 nM in [2]; 1600 nM in test [3]; 1900 nM in test [4]; 4000 nM in test [5]; 1300 nM in test [6]. Further, the IC50 in [7] worked out at 1300 nM; in test [8], 1800 nM; in test [9] it was 1300 nM; in [10], 1700 nM; in test [11] it was 1000 nM; in [12] it was 1000 nM. In test [13], this compound came in with an IC50 of 1900 nM.

Regarding `O=c1cc2oc3c4c(ccc3nc-2c2cccnc12)CCCC4`, the half-maximal inhibitory concentration (IC50) was determined as 1900 nM in test [1]; 1000 nM in test [2]; 2500 nM in test [3]; 1800 nM in [4]; 2100 nM in test [5]; 2000 nM in test [6]. Moreover, the half-inhibitory concentration (IC50) in test [7] is 1900 nM; in [8], 1900 nM; in test [9], 1500 nM; in [10] it was 1000 nM; in [11] it was 1400 nM; in [12], 2100 nM. The IC50 in test [13] was 1100 nM.

Regarding `Cc1ccc2nc3c4cccnc4c(=O)cc-3oc2c1C`, the IC50 was 3000 nM in test [1]; 500 nM in test [2]; 600 nM in [3]; 400 nM in test [4]; 1800 nM in [5]; 30 nM in test [6]. In addition, the concentration for half-maximal inhibition (IC50) in test [7] amounted to 6000 nM; in [8] it was 5 nM; in test [9], 300 nM; in [10], 400 nM; in test [11], 100 nM; in test [12], 6900 nM. In test [13], this compound gave an IC50 of 1800 nM.

`Cc1cc(C)c2oc3cc(=O)c4ncccc4c-3nc2c1`: the IC50 came to 1200 nM in test [1]; 500 nM in [2]; 1700 nM in test [3]; 1100 nM in test [4]; 900 nM in test [5]; 1500 nM in [6]. Besides, the IC50 in test [7] was found to be 150 nM; in test [8] it was 900 nM; in test [9], 100 nM; in test [10], 1200 nM; in test [11], 300 nM; in test [12] it was 1600 nM. The half-maximal inhibitory concentration (IC50) in test [13] came to 600 nM.

For the compound `Cc1cc(C)c2nc3c4cccnc4c(=O)cc-3oc2c1`, the half-inhibitory concentration (IC50) is 500 nM in test [1]; 200 nM in [2]; 200 nM in [3]; 300 nM in test [4]; 70 nM in [5]; 1 nM in [6]. Besides, the IC50 in test [7] came to 100 nM; in test [8] it was 1 nM; in [9], 40 nM; in test [10] it was 300 nM; in test [11], 20 nM; in test [12], 200 nM. Further, the IC50 in [13] stood at 5 nM.

On to `O=c1cc2oc3c(ccc4ccccc43)nc-2c2cccnc12`, for which the Activity in test [14] is given as 17.63%; in [15] it was 43.88%; in [16], 38.49%. The concentration for half-maximal inhibition (IC50) in test [1] was 90 nM; in test [2] it was 100 nM; in [3] it was 200 nM; in test [4], 60 nM; in [5], 60 nM; in [6], 50 nM. Also, the concentration for half-maximal inhibition (IC50) in [7] was found to be 50 nM; in [8], 500 nM; in test [9], 100 nM; in test [10] it was 100 nM; in [11], 20 nM; in [12], 300 nM. The compound also displayed an IC50 in test [13] of 100 nM. The outcome in test [17] and in test [18] was inactive.

Regarding `O=c1cc2oc3ccccc3nc-2c2cccnc12`, the IC50 came to 20 nM in test [9], 100 nM in test [10], 10 nM in test [11] and 200 nM in test [12].

These data come from ChEMBL document CHEMBL1145337, “Antitumor agents. 5. synthesis, structure-activity relationships, and biological evaluation of dimethyl-5H-pyridophenoxazin-5-ones, tetrahydro-5h-benzopyridophenoxazin-5-ones, and 5h-benzopyridophenoxazin-5-ones with potent antiproliferative activity” (J Med Chem, 2006).
